According to paper PMC12147034, “Identification of alkynyl nicotinamide HSN748 as a RET solvent-front mutant inhibitor with intracranial efficacy” (RSC Medicinal Chemistry, 2025):
Like-named read-outs stand apart in the source and are kept apart here.

How the values were obtained:
[1] = system: B/KR(G810C)-luc brain tumors; assay: Intracranial B/KR(G810C)-luc tumor experiment (bioluminescence imaging); format: in vivo, mice; conditions: for inhibition at 10 mg/kg: Mus musculus, 10 mg kg^-1, not statistically significant
Experimental: Fig. 5 Intracranial efficacy of alkynyl nicotinamide-based RET TKIs. B/KR(G810C)-luc cells were injected into mouse brains and treated with indicated compounds. (A) Responses of intracranial tumors to the treatment were monitored by measurement of bioluminescence signal in the animal heads. The data are means and SEM. (B) Response of extracranial tumors were monitored by subtracting whole body bioluminescence signal with the bioluminescence signals of the head. (C) Bioluminescence images of vehicle- and 20 mg kg^−1 HSN748-treated mice on day 0 and day 23 to illustrate the progression of tumors in vehicle-treated mice and suppression of tumor growth in HSN748-treated mic. TEXT PRINTED IN THE PICTURE: (C) HSN748: ROI 5 = 6.99e+4 (20 mg/kg; Day 0); ROI 5 = 9.86e+4 (20 mg/kg; Day 0); ROI 1 = 2.22e+5 (20 mg/kg; Day 0); ROI 1 = 1.08e+8 (20 mg/kg; Day 23); ROI 2 = 1.43e+7 (20 mg/kg; Day 23); ROI 3 = 1.59e+9 (20 mg/kg; Day 23); ROI 1 = 3.56e+8 (20 mg/kg; Day 23) DOUBTS OF THE COPYIST ABOUT THIS PICTURE: Panels A and B print no numbers for any substance, only curves, axes and legends, so nothing was read from them. / Panel C: the ROI values are very small, blurred instrument overlays on the mouse images. In all values given, the digits 3, 5, 6, 8 and 9 and the exponents cannot be told apart with certainty. / HSN748, Day 0, 'ROI 5 = 6.99e+4': the ROI number may be 1 or 5, and 6.99 may be 8.99. / HSN748, Day 0, 'ROI 5 = 9.86e+4': the ROI number may be 3 or 5, and the exponent may be cut off at the image edge. / HSN748, Day 0, 'ROI 1 = 2.22e+5': the last digit of the exponent is uncertain. / HSN748, Day 0: 'ROI 3 = ...', 'ROI 2 = 2.35e...', 'ROI 1 = 3.0...' and the fragments 'e+5' and 'e+4' are cut off by the image crop and were left out. / HSN748, Day 23: 'ROI 2 = ...' in the right image is cut off and was left out. / HSN748, Day 23, 'ROI 1 = 1.08e+8': may be 1.06 or 1.08. / HSN748, Day 23, 'ROI 3 = 1.59e+9': the exponent may be 8 or 9. / HSN748, Day 23, 'ROI 1 = 3.56e+8': may be 3.58 or 3.56. / The Vehicle (control) mice in panel C also carry ROI labels. They were left out because Vehicle is a control, not a substance, and several are cut off. Day 0 reads about ROI 1 = 7.31e+4, ROI 2 = 9.65e+4, ROI 3 = 2.43e+5. Day 23 reads about ROI 1 = 7.32e+6, ROI 2 = 1.14e+9, ROI 3 = 1.31e+..., ROI 1 = 7.77e+9.
Intracranial tumor experiments were performed using female NRG mice (Jackson Laboratory stock #007799) 10–12 weeks old as the hosts. Mice were anesthetized with 3% isoflurane gas and situated in a stereotactic frame (Stoelting). To determine the injection site, the scalp was opened with a scalpel and the bregma was located. Then the point 1.5 mm posterior and 2 mm to the right was identified and a 2 mm burr hole was drilled just through the skull. 3 × 10^5 B/KR(G810C)-Luc cells in 3 μL were injected into the brain at a depth of 4 mm over 3 minutes using a 10 μL Hamilton syringe. The syringe was withdrawn over 5 minutes and the hole was filled with bone wax, the scalp was closed with medical glue, and the mice were returned to a heated cage for recovery. Tumor growth was determined via bioluminescent imaging with a Spectral Ami Optical Imaging System (Bruker). Mice were anesthetized with 3% isoflurane gas and injected intraperitoneally with 150 mg kg^−1D-luciferin. After 15 minutes, mice were imaged for photon emission to determine tumor burden.

[2] = In vivo pharmacokinetics in rats; parameters: species or system rat; conditions: for Vd/F: read-out: Vss/F
Experimental: For compound HSND19, male SD rats received an intravenous (IV) dose of 2 mg kg^−1 and an oral (PO) dose of 10 mg kg^−1. Both formulations were prepared in 10% DMSO/90% (20% HP-β-CD in water, w/w). Blood samples were collected at 0.25, 0.5, 1, 2, 4, 8, and 24 hours post-dosing. For compound HSN748, male SD rats received oral doses of 20, 50, and 100 mg kg^−1 in a solution of 0.5% methylcellulose (4000 cp)/0.1 M citrate buffer (pH 4.5). Blood samples were collected at 0.25, 0.5, 1, 2, 4, 6, 8, and 24 hours post-dosing. For IV administration, male CD1 mice received 2 mg kg^−1 prepared with 5% DMSO/5% Tween80/40% PEG400/50% PBS, with sampling at 0.083, 0.25, 0.5, 1, 2, 4, 8, and 24 hours.
In oral PK studies, blood samples were collected at each time point, with a total of 3 animals per study. In IV studies, animals were euthanized after blood collection at each time point to collect brain tissue, using a total of 21 animals per study. Whole blood samples were collected in heparinized tubes and centrifuged to separate plasma. Brain samples were rinsed, weighed, and immediately frozen in liquid nitrogen, and stored at −80 °C until analysis. The PK studies were conducted by Pharmaron (Beijing, China). Animal procedures were performed in accordance with the Guidelines for Care and Use of Laboratory Animals of Pharmaron (Beijing, China) and approved by the Animal Ethics Committee of Pharmaron (Beijing, China).
The mean concentration-time profiles were analyzed using Phoenix WinNonlin (version 8.4; Certara USA, Inc., Princeton, NJ) to calculate standard PK parameters, including the area under the curve from zero to infinity (AUC), bioavailability (F), clearance, volume of distribution, and half-life (t1/2).

[3] = read-out: inhibition of the extracranial tumors
[4] = read-out: inhibition of the intracranial tumors
[5] = male, Sprague-Dawley, plasma, Rat, PO, 20 mg kg^-1
[6] = male, Sprague-Dawley, plasma, Rat, PO, 50 mg kg^-1
[7] = male, Sprague-Dawley, plasma, Rat, PO, 100 mg kg^-1
[8] = male, Sprague-Dawley, rat, plasma, po, oral PK, stated as a range across doses / compounds, read-out: elimination half-life
[9] = male, Sprague-Dawley, plasma, Rat, IV, 2 mg kg^-1
[10] = male, Sprague-Dawley, plasma, Rat, PO, 10 mg kg^-1

## CN1CCN(Cc2ccc(NC(=O)c3cncc(C#Cc4cnc5cccnn45)c3)cc2C(F)(F)F)CC1 [HSN748]
[1]; 20 mg kg^-1
  extracranial bioluminescence signals of B/KR(G810C)-luc tumor cells: significantly inhibited
[1]; 20 mg kg^-1, bioluminescence signal in the head
  inhibition of intracranial B/KR(G810C)-luc tumors: statistically significant inhibition
[1]; [3]
  inhibition at 10 mg/kg: 58%
[1]; [4]
  inhibition at 10 mg/kg: 52%
[2]; Rat, PO, 20 mg kg^-1
  AUCPlasma/dose: 376.3 ng h ml^-1 per mg kg^-1
[2]; Rat, PO, 50 mg kg^-1
  AUCPlasma/dose: 355.7 ng h ml^-1 per mg kg^-1
[2]; Rat, PO, 100 mg kg^-1
  AUCPlasma/dose: 335.5 ng h ml^-1 per mg kg^-1
[2]; male, SD, plasma, Rat, PO, 20 mg kg^-1, read-out: AUCPlasma (converted)
  AUC: 7520 ng·h/mL
[2]; male, SD, plasma, Rat, PO, 20 mg kg^-1, read-out: Tmax
  Tmax: 4 h
[2]; male, SD, plasma, Rat, PO, 50 mg kg^-1, read-out: AUCPlasma (converted)
  AUC: 17800 ng·h/mL
[2]; male, SD, plasma, Rat, PO, 50 mg kg^-1, read-out: Tmax
  Tmax: 4 h
[2]; male, SD, plasma, Rat, PO, 100 mg kg^-1, read-out: AUCPlasma (converted)
  AUC: 33500 ng·h/mL
[2]; male, SD, plasma, Rat, PO, 100 mg kg^-1, read-out: Tmax
  Tmax: 2 h
[2]; [5]
  CL/F: 44.3 mL/min/kg
  Cmax: 911 ng/mL
  Vd/F: 19.3 L/kg
[2]; [6]
  CL/F: 46.8 mL/min/kg
  Cmax: 1830 ng/mL
  Vd/F: 23.4 L/kg
[2]; [7]
  CL/F: 49.7 mL/min/kg
  Cmax: 3330 ng/mL
  Vd/F: 28.9 L/kg
[2]; male, Sprague-Dawley, plasma, Rat, oral, across 20, 50 and 100 mg kg^-1, read-out: time of peak plasma concentrations postdose
  Tmax: 2 to 4 h
[2]; male, Sprague-Dawley, rat, plasma, po, 20 mg/kg, Rat, PO, 20 mg kg^-1, read-out: t1/2 (converted)
  half-life: 183 min
[2]; male, Sprague-Dawley, rat, plasma, po, 50 mg/kg, Rat, PO, 50 mg kg^-1, read-out: t1/2 (converted)
  half-life: 256 min
[2]; male, Sprague-Dawley, rat, plasma, po, 100 mg/kg, Rat, PO, 100 mg kg^-1, read-out: t1/2 (converted)
  half-life: 350 min
[2]; [8]
  half-life: 180 to 360 min

## Cc1n[nH]c2ncc(C#Cc3cncc(C(=O)Nc4ccc(CN5CCN(C)CC5)c(C(F)(F)F)c4)c3)cc12 [HSND19, 5-((3-Methyl-1H-pyrazolo[3,4-b]pyridin-5-yl)ethynyl)-N-(4-((4-methylpiperazin-1-yl)methyl)-3-(trifluoromethyl)phenyl)nicotinamide]
[1]; 20 mg kg^-1
  extracranial bioluminescence signals of B/KR(G810C)-luc tumor cells: significantly inhibited
[1]; [3]
  inhibition at 10 mg/kg: 85%
[1]; [4]
  inhibition at 10 mg/kg: 28%
[2]; Rat, IV, 2 mg kg^-1
  AUCBrain: 275 ng·h/mL
  peak brain concentration: 25.5 ng/mL
[2]; Rat, PO, 10 mg kg^-1
  t1/2: 3.7 h
[2]; male, Sprague-Dawley, brain and plasma, Rat, IV, 2 mg kg^-1, read-out: brain-to-plasma partition coefficient (Kp), AUCbrain/AUCPlasma
  Kp: 0.2
[2]; [9]
  Cmax: 308 ng/mL
  clearance: 24 mL/min/kg
[2]; male, Sprague-Dawley, plasma, Rat, IV, 2 mg kg^-1, read-out: AUCplasma
  AUC: 1390 ng·h/mL
[2]; male, Sprague-Dawley, plasma, Rat, IV, 2 mg kg^-1, read-out: Tmax
  Tmax: 0.25 h
[2]; male, Sprague-Dawley, plasma, Rat, IV, 2 mg kg^-1, read-out: Vss
  Vd: 7.1 L/kg
[2]; [10]
  CL/F: 95 mL/min/kg
  Cmax: 182 ng/mL
  Vd/F: 45.1 L/kg
[2]; male, Sprague-Dawley, plasma, Rat, PO, 10 mg kg^-1, read-out: AUCplasma
  AUC: 1760 ng·h/mL
[2]; male, Sprague-Dawley, plasma, Rat, PO, 10 mg kg^-1, read-out: Tmax
  Tmax: 4 h
[2]; male, Sprague-Dawley, rat, plasma, iv, 2 mg/kg, Rat, IV, 2 mg kg^-1, read-out: t1/2 (converted)
  half-life: 216 min
[2]; male, Sprague-Dawley, rat, plasma, po, 10 mg/kg, 10 mg kg^-1
  bioavailability: ~25%
[2]; male, Sprague-Dawley, rat, plasma, po, 10 mg/kg, Rat, PO, 10 mg kg^-1, read-out: t1/2 (converted)
  half-life: 216 min
[2]; [8]
  half-life: 180 to 360 min
